{"source": "patent EP2823816A1", "about": "“Inhibitors of Neuropilin and use thereof for the treatment of Neuropilin-related diseases” (Tragex Pharma, priority 2013, dated 2015)", "key": {"MDA-MB-231 cells": {"tested_on": "MDA-MB-231 cells", "experiment": "Adhesion test (crystal violet)", "format": "cell-based, human", "conditions": "in vitro, Figure 3A"}, "MDA-MB-231 cancer cells": {"tested_on": "MDA-MB-231 cancer cells", "experiment": "Motility assay (videomicroscopy)", "format": "cell-based, human", "conditions": "MDA-MB-231, 24 h, at the IC50 of the proliferation assay, Figure 4", "procedure": "Endothelial cells (HUVEC) and breast cancer cells (MDA-MB-231) were seeded in 35 mm diameter tissue culture dishes at 3×10^4 and 6×10^4 cells per dish respectively and treated separately with DMSO (control) and compound 1 of the invention (treatment) for 24 h, at the concentration of IC50 obtained with the proliferation assay.\nThe dishes were placed in an enclosed warming incubator on the motorized stage of a computer-controlled Eclipse Ti inverted microscope (Nikon Instruments Europe) equipped with a CCD Cool- SNAP HQ2 camera (Roper Scientific, USA) and a PC workstation. The incubator allowed samples to be kept at 37°C in a humidified atmosphere containing 5% CO2, 95% air. Phase images were recorded at 100× every 5 min simultaneously over several fields from 0 till 24 h (288 frames). Cell motility was tracked and analyzed for at least 25 cells in each field over three independent experiments. The total distance of migration and the speed of migration were analyzed. The degree of persistence of movement was defined as the ratio between the linear distance and the total distance covered by the cells. Image acquisition and analyses were carried out using Metamorph7 software (Universal Imaging)."}, "HUVEC cells": {"tested_on": "HUVEC cells", "experiment": "Tube formation assay", "format": "cell-based", "conditions": "HUVEC on collagen, VEGF-A165-stimulation, Figure 2", "procedure": "Collagen type I (1 mg/ml, BD) was mixed with 0.1N NaOH, 0.1% bicarbonate and 10X in medium EBM-2 and kept on ice until placed into the wells. The assay was prepared in 96-well plate format and the bottom layer of collagen was formed by adding 70 µL of the solution per well and allowing subsequent gelation at 37°C for 30 min. The HUVEC cells were then seeded on collagen at […] cells per well. After monolayer formation (one day), a second layer of collagen 200 µL per well was prepared according to the same protocol and gently placed on top of the cell layer. The compounds of the invention were added to the cells at the adhesion step (concentration corresponding to the Inhibitory Concentration 50 (IC50)). After 24 and 48 h of incubation at 37°C, tube formation was observed and pictures were taken."}, "[1]": {"tested_on": "MDA-MB-231 + shRNA directed to NRP1", "experiment": "Proliferation assay in shRNA-transfected cells", "format": "cell-based", "conditions": "Homo sapiens; inhibition of proliferation; clone MDA-MB-231 + shRNA directed to NRP1", "from_the_text": "(§1) The cell proliferation WST-1 assay is a colorimetric assay for the quantification of cell proliferation and viability, based on the enzymatic cleavage of the tetrazolium salt WST-1 added to the culture medium, to a water soluble colored formazan dye, detected by absorbance at 450 nm, by mitochondrial succinate-tetrazoliumreductase in viable cells. An augmentation in enzyme activity will then lead to an increase in the amount of formazan dye formed, which directly correlates to the number of metabolically active cells in the culture.\n(§2) After an incubation period of 72 h, at day 4, were prepared the 19 mL medium with reagent WST-1 1mL ([…]). The medium was removed from the 96 microplate and 200 µL of solution WST-1/medium were added for each well. The cells were incubated at 37°C in a humidified atmosphere of 5% CO2 for 1h30 and the absorbance at 450-655 nm was measured by Microplate Manager 5.2 (Bio-Rad).\n(§3) The effect of compound 1 of the invention on cell proliferation was tested according to the proliferation assay hereinabove described, in MDA-MB-231 cancer cells transfected with shRNA directed to NRP1 or NRP2 or with control shRNA."}, "[2]": {"tested_on": "MDA-MB-231 + control shRNA", "experiment": "Proliferation assay in shRNA-transfected cells", "format": "cell-based", "conditions": "Homo sapiens; inhibition of proliferation; clone MDA-MB-231 + control shRNA", "from_the_text": "as §1, §2, §3"}, "[3]": {"tested_on": "MDA-MB-231 + shRNA directed to NRP2", "experiment": "Proliferation assay in shRNA-transfected cells", "format": "cell-based", "conditions": "Homo sapiens; inhibition of proliferation; clone MDA-MB-231 + shRNA directed to NRP2", "from_the_text": "as §1, §2, §3"}, "[4]": {"experiment": "In vivo xenograft study, body weight", "conditions": "NOD-SCID IL-2Rγ-/- mice, both tested doses (10 or 50 mg/kg), oral gavage three times a week, Figure 5A", "procedure": "Female (NOD-SCID, IL-2Rγ^-/-) mice 5-6 weeks old were injected subcutaneously with MDA-MB-231 cells (5.10^6) at a single site on their right flanks. Tumors were allowed to grow to about 100 mm^3 before being pair-matched by tumor size into treatment groups (8 mice/group). One group was treated with vehicles (8 mice receiving cremofor 12.5%/ethanol 12.5%/ H2O), one group was treated with 10 mg/kg of the compound 1 of the invention (8 mice receiving compound 1 + cremofor 12.5%/ethanol 12.5%/ H2O), one group was treated with 50 mg/kg of the compound 1 of the invention (8 mice receiving compound 1+ cremofor 12.5%/ethanol 12.5%/ H2O). All groups received 3 times a week by oral gavages approximately 100 µL of a solution containing the compound 1 of the invention. Mice were weighed regularly to assess toxicity of the treatments and the tumors were measured with calipers (width x width x length x Pi/6) to determine tumor growth. Mice survival was assessed during the study and metastatic development was investigated in lung, spleen and liver."}}}
{"smiles": "CCOc1ccccc1NC(=O)c1ccc(C)c(S(=O)(=O)Nc2ccc(C)cc2)c1", "note": "[Compound 1, N-(2-ethoxyphenyl)-4-methyl-3-(N-(p-tolyl)sulfamoyl)benzamide]", "values": [{"measurement": "adhesion of MDA-MB-231 cells", "setting": "MDA-MB-231 cells", "result": "inhibits"}, {"measurement": "motility of cancer cells (migration speed)", "setting": "MDA-MB-231 cancer cells", "result": "significant anti-migratory effect"}, {"measurement": "formation of new blood vessels (tube formation)", "setting": "HUVEC cells", "result": "effectively inhibits the formation of new blood vessels"}, {"measurement": "IC50", "setting": "[1]", "result": "9 ± 0.08", "unit": "µM"}, {"measurement": "IC50", "setting": "[2]", "result": "0.8 ± 0.05", "unit": "µM"}, {"measurement": "IC50", "setting": "[3]", "result": "10 ± 0.05", "unit": "µM"}, {"measurement": "body weight (toxicity)", "setting": "[4]", "result": "no significant change in body weight"}]}
